Where “and” joins values, the source holds several entries; their conditions need not be identical. Equal entries are not always repeated. Entries after “also recorded” stand apart in the source; their conditions may differ. Where two headings read alike, the source gives them in different places.
Tests used:
human tyrosinase = tested on: T1, human tyrosinase; experiment: TH activity of human tyrosinase; assay type: biochemical; details: compared with DO activity
T1 construct: endogenous in cells

mushroom tyrosinase = experiment: Mushroom tyrosinase DO activity inhibition (dopachrome formation at 475 nm, L-DOPA substrate); assay type: biochemical; details: LCAME 0.050 μM
Description: The inhibition properties of LCAME were preliminarily investigated on mushroom tyrosinase by spectrophotometric monitoring of dopachrome formation, a method which is routinely used for evaluation of the activity of potential tyrosinase inhibitors. L-DOPA was used as the substrate to test DO activity while L-tyrosine was used to test TH activity. LCAME was incubated in 50 mM phosphate buffer in the presence of mushroom tyrosinase (20 U/mL) at room temperature. After 10 min, L-DOPA or L-tyrosine (1 mM final concentration) were added and the absorbance at 475 nm was measured at different times over 10 min. For comparative purposes the effects of CAME were evaluated as well. Stock methanolic solutions of LCAME or CAME, ranging in concentration from 0.02 to 20 mM concentration were prepared dissolving a proper amount of the compound of interest in methanol. 100 μL of these solutions were added to 2 mL of 50 mM phosphate buffer at pH 6.8 (final concentrations range: 0.001–1 mM), in the presence or in the absence of 20 U/mL mushroom tyrosinase. After 10 min incubation at room temperature, 20 μL of a 100 mM solution of L-DOPA or L-tyrosine in 0.6 M HCl, were added (final concentration: 1 mM). Spectrophotometric analysis was performed by measuring the absorbance at 475 nm for 10 min at 2 min intervals. In control experiments, the reaction was run in the absence of LCAME. When required, the experiment was performed as above but adding L-DOP A soon after the addition of LCAME ([…]). In separate experiments, the assay was run as above with LCAME or CAME at 100 μM, in the presence or absence of L-DOPA, and after 10 min the mixture was analyzed by HPLC.

[1] = biological target: T2, tyrosinase from HBL human melanoma cells (Homo sapiens, UniProt P14679); experiment: DO activity of human tyrosinase in HBL cell extracts (MBTH assay, 490 nm); assay type: biochemical; details: for Km: read-out: Km (apparent)
T2 construct: endogenous in cells; host or cells: HBL human melanoma cells (detergent-solubilized cell extract)
T2 sequence (P14679 19-529): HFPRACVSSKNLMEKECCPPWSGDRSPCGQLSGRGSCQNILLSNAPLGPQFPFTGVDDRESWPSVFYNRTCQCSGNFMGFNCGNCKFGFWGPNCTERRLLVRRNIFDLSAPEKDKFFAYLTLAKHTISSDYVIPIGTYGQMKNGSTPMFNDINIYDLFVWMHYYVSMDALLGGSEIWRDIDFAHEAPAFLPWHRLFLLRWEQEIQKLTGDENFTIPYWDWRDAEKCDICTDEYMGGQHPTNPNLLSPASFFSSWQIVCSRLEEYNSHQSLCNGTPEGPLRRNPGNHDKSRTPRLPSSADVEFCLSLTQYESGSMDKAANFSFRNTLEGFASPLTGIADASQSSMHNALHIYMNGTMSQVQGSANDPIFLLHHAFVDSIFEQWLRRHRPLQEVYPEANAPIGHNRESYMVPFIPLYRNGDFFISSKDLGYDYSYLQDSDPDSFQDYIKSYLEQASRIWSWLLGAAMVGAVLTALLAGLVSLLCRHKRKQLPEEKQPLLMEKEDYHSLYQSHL
Description: In further experiments, the effect of LCAME and LCA was investigated on extracts from HBL human melanoma cells expressing tyrosinase, and the inhibition of DO activity was evaluated. DO activity was determined according to Winder and Harris with some minor modifications: cell extracts were incubated with 3-methyl-2-benzothiazolinone hydrazone (MBTH) and absorbance at 490 nm was measured every 10 min for 1 h.
Cells were solubilized in 1% Igepal, 1% phenylmethylsulfonyl fluoride, 50 mM phosphate buffer (pH 6.8) and centrifuged at 2000 rpm for 5 min.
DO activity determinations were performed according to Winder and Harris with minor modifications. Briefly, cell extracts (usually 50–100 µg protein/assay) were incubated with 5 mM MBTH and 2.5 mM L-DOPA in 50 mM phosphate buffer pH 6.8 in the presence of the indicated concentrations of the compound of choice in a 96-wells plate. DO activity was measured spectrophotometrically in a microplate reader every ten minutes for one hour and was expressed as the slopes calculated with the GraphPad Prism 7 software (Linear Regression, San Diego, CA, USA).
For the analysis of kinetic parameters, the assays were run as above, using different concentrations of L-DOPA (from 0.1 to 2.0 mM) and of the inhibitor (0, 10 and 25 μM) to build the Lineweaver–Burk plot.

HBL cells = experiment: MTT viability assay; assay type: cell-based, human; details: 25 or 50 μM, 24 h
Description: The effect of the inhibitors on cell viability was evaluated by phase contrast microscopy and by means of the 3-(4,5-dimethyl-2-thiazolyl)-2,5-diphenyl-2H-tetrazolium bromide (MTT) assay. HBL cells were treated with the compounds (25 or 50 μM) for 24 h. At the end of the incubation period, phase contrast images were taken and the MTT assay was performed to test the cytotoxicity of each compound.
Figure 4 Effect of caffeic acid derivatives on the viability of HBL cells. Cells were incubated for 24 h with the inhibitors at 25 or 50 µM. (a) Phase contrast microscopy images. Representative images are shown (n = 8) Bar size: 50 μm. (b) MTT viability assay. Cells were grown in 96-well plates to ~80% confluence in the presence or absence of the indicated compounds. After 24 h, MTT was added (1 mg/mL final concentration) and maintained in the culture media for 4 h. Cells were PBS-washed twice and solubilized in DMSO. Absorbance at 562 nm was measured and represented as a percentage of the control value. The mean ± SEM of 8 independent experiments is shown. **** p < 0.0001.
Cell viability was measured by the MTT assay. HBL cells were seeded into the wells of a 96-wells plate at a density of 10,000 cells in 200 μL cell culture media. The seeded cells were incubated for 18 h at 37 °C, then treated with the compounds (25 or 50 μM) for 24 h or left untreated. At the end of the incubation period, images were taken and the MTT assay was performed to test the cytotoxicity of the different caffeic acid derivatives.

## COC(=O)/C=C/c1ccc(O)c(O)c1SCCC(S)CCCCC(=O)O (stereo not drawn) [LCAME, 2-S-lipoylcaffeic acid methyl ester]
Human tyrosinase
  effect on TH activity of human tyrosinase: weaker; also recorded: much smaller
Mushroom tyrosinase; 10 min pre-incubation
  inhibition of DO activity: 50 ± 2%
Mushroom tyrosinase; L-DOPA added immediately after LCAME (no pre-incubation)
  inhibition of DO activity: 42 ± 1%
[1]; DO activity, HBL cell extracts, L-DOPA 2.5 mM, read-out: IC50 (Mean ± SEM)
  IC50: 30 µM and 30.1 µM
[1]; DO activity, competitive model Km^app = Km (1 + [I]/Ki)
  Ki: 34.7 ± 1.1 µM
[1]; L-DOPA 0.1 to 2.0 mM, LCAME 10 or 25 μM
  type of inhibition (Lineweaver–Burk): competitive inhibition
[1]; [LCAME] 10 μM
  Vmax: 0.18 ± 0.02 ∆A490/min mg
  Km: 1430 ± 300 µM
[1]; [LCAME] 25 μM
  Vmax: 0.19 ± 0.03 ∆A490/min mg
  Km: 1950 ± 500 µM
[1]; fixed concentration of 25 μM, HBL cell extracts
  inhibitory effect on DO activity: significant inhibitory effect
HBL cells
  cytotoxicity (MTT): nontoxic; also recorded: not cytotoxic
